We go through four molecules from PMC4265473 (Molecular nutrition & food research, 2014).

The conditions of series [1]: female, human, in vivo.
Series [2] is described as follows: clinical. The conditions noted are these: female, human, in vivo.
Series [3] deals with Ishikawa cell line. Particulars: read-out: EC50, estrogenicity; Ishikawa cells; cited from earlier work.
For series [4] the following is noted: cited from earlier work.
For series [5] the following is noted: mean ± S.D., N = 5; for Urinary excretion (total) during the first 24 h: after enzymatic deconjugation.
The conditions of series [6]: for unconjugated form in serum: before enzymatic deconjugation, early time points of medium and high dose subjects; for Cmax / half-life / Tmax / Vd/F: female, human, serum, po; for CL/F: oral.
The conditions of series [7]: cited from earlier work. The source holds these as a separate data set.
The conditions of series [8]: rats, cited from earlier work.
For series [9] the following is noted: in the stomach; cited from earlier work.
For series [10] the following is noted: rats, 100 mg/kg XN daily by oral gavage for 5 days; cited from earlier work.
[11] abbreviates: 2 capsules/day, medium dose (2 capsules), mean ± S.D., N = 5.
Where [12] appears, read: 2 capsules/day, T1/2, medium dose (2 capsules), mean ± S.D., N = 5.
[13] abbreviates: 4 capsules/day, high dose (4 capsules), mean ± S.D., N = 5.
Setting [14] is: 4 capsules/day, T1/2, high dose (4 capsules), mean ± S.D., N = 5.
Where [15] appears, read: half-life, across all dosages of the hop extract.
Setting [16] is: high dose (4 capsules), mean ± S.D., N = 5.
The mark [17] stands for this setting: low dose (1 capsule), mean ± S.D., N = 5.
[18] abbreviates: medium dose (2 capsules), mean ± S.D., N = 5.

Where “and” joins values, the source holds several entries; their conditions need not be identical. Equal entries are not always repeated. Where two headings read alike, the source gives them in different places. Marks after values point to notes of the source that are not given here. A value given as a limit tells only on which side of the number the result lay.

Turning to `CC(C)=CCc1c(O)cc2c(c1O)C(=O)C[C@@H](c1ccc(O)cc1)O2` [6-PN, 6-prenylnaringenin], the “AUC0-24 ratios after normalization by dose” value in series [1] was 1: 1.2: 0.5. Moreover, the Vd/F in [2] (apparent volume of distribution) was 887 to 1770 L; in series [2] (po) it was 887 ± 581 L. The molecule also showed a total exposure AUC(0-inf) in series [2] (po, AUC0-inf) of 69.2 ± 60 ng·h/mL. For the same molecule, the half-life is 23.5 ± 6.9 h in [2] (po, T1/2) and 21 to 24 h in [2] (po, half-life).

For the molecule `CC(C)=CCc1c(O)cc(O)c2c1O[C@H](c1ccc(O)cc1)CC2=O` [8-PN, 8-prenylnaringenin], in series [3], the EC50 was 13 nM. Moreover, the “time of secondary peak due to enterohepatic recirculation” value in series [4] (post dose, women) is 5 to 8 h. In addition, in [4] (single oral dose of 50 mg 8-PN, women), the AUC0-24 is on record as 453 h^.ng/mL. In addition, the “share of dose recovered in feces within 48 h” value in series [4] (single oral doses to women) is 21-24%. The “Urinary excretion (total) during the first 24 h” value stood at 29.4 ± 22.9 nmol in series [5] (high dose), 5.1 ± 4.4 nmol in series [5] (low dose) and 21.3 ± 21.6 nmol in [5] (medium dose). The entries for the “Urinary excretion (% of dose) during the first 24 h” value in [5] (high dose), in series [5] (low dose) and in [5] (medium dose) were 1.001±0.781%, 0.693±0.597% and 1.449±1.467%, respectively. For the same molecule, the “unconjugated form in serum” value in [6] is “no free 8-PN was detected”. For the same molecule, the “AUC0-24 of a theoretical dose of 50 mg 8-PN in the hop extract” value in series [6] (extrapolated assuming AUC linear with dose) is 2520 h^.ng/mL. Further, the peak concentration (Cmax) in [6] (setting [11]) turned out to be 3.9 ± 2.6 ng/mL; in [6] (setting [13]) it was 6.7 ± 3.8 ng/mL. Besides, the half-life in series [6] (setting [12]), in series [6] (setting [14]) and in [6] (setting [15]) was above 24 h each time. Besides, the figures for the time of peak concentration (Tmax) in series [6] (setting [11]) and in series [6] (setting [13]) were 7 ± 9.7 h and 2.8 ± 4 h, respectively. In addition, the Vd/F was determined as 186 ± 186 L in [6] (setting [11]) and 271 ± 216 L in series [6] (setting [13]). For the same molecule, the CL/F in [6] (setting [16]) amounted to 13.7 ± 5.5 L/h; in series [6] (setting [17]), 11.1 ± 3.4 L/h; in series [6] (setting [18]), 10.4 ± 8.1 L/h. Also, the “ratio of total serum concentrations 8-PN/IX” value in series [6] (mean of the other 4 subjects, high dose) worked out at 0.14; in series [6] (mean value, medium dose), 0.17; in [6] (one subject with higher exposure, high dose, after enzymatic deconjugation) it was 0.35; in series [6] (one subject with higher exposure, medium dose) it was 0.65.

Consider `COc1cc(O)c(CC=C(C)C)c2c1C(=O)CC(c1ccc(O)cc1)O2` (centres unmarked) [IX, isoxanthohumol], for which the “Urinary excretion (total) during the first 24 h” value in series [5] (high dose) was found to be 172 ± 67.4 nmol; in [5] (low dose), 29.8 ± 32.3 nmol; in series [5] (medium dose) it was 89.5 ± 54.5 nmol. In addition, the “Urinary excretion (% of dose) during the first 24 h” value in series [5] (high dose) came to 1.902±0.746%; in series [5] (low dose), 1.318±1.428%; in [5] (medium dose) it was 1.98±1.205%. In [6], the “unconjugated form in serum” value is listed as “detected”. Moreover, the values for the Cmax in series [6] (setting [11]) and in series [6] (setting [13]) were 19.1 ± 15.5 ng/mL and 37.6 ± 17.6 ng/mL, respectively. Moreover, the half-life in series [6] (setting [12]) is 24.8 ± 24.3 h; in [6] (setting [14]), 19.9 ± 8.7 h. The time to peak (Tmax) in [6] (setting [11]) turned out to be 3.2 ± 3.2 h; in series [6] (setting [13]) it was 4 ± 4.8 h. In addition, the figures for the Vd/F in [6] (setting [11]) and in [6] (setting [13]) were 99 ± 56 L and 182 ± 53 L, respectively. Further, the figures for the CL/F in [6] (setting [16]), in [6] (setting [17]) and in series [6] (setting [18]) were 7.3 ± 3.5 L/h, 7.1 ± 4.2 L/h and 5.7 ± 4.9 L/h, respectively.

As for `COc1cc(O)c(CC=C(C)C)c(O)c1C(=O)/C=C/c1ccc(O)cc1` [XN, xanthohumol], the elimination half-life in series [7] (humans, oral pure XN) is 18 to 20 h; in series [8] (oral pure XN), 32 h. The “time of secondary peak due to enterohepatic recirculation” value in series [7] (men and women) is listed as 4 h. For the same molecule, the “share recovered in the feces in the first 48 h” value in [8] (oral administration) is on record as 89%. Further, the “half-life of conversion to IX by acid-catalyzed cyclization” value in [9] is 0.617 h. The tissue distribution result in series [10] was “highest concentrations in the small intestine, colon and the liver”. Besides, the “Urinary excretion (total) during the first 24 h” value is given as 138 ± 113 nmol in series [5] (high dose), 23.9 ± 17.9^a nmol in series [5] (low dose) and 37.0 ± 26.3 nmol in [5] (medium dose). The “Urinary excretion (% of dose) during the first 24 h” value worked out at 0.058±0.047% in [5] (high dose), 0.040±0.030% in series [5] (low dose) and 0.031±0.022% in series [5] (medium dose). For the same molecule, the “unconjugated form in serum” value in series [6] was “detected”. Moreover, the Cmax in series [6] (setting [11]) was found to be 22.2 ± 12.1 ng/mL; in series [6] (setting [13]), 27.6 ± 8.9 ng/mL. In addition, the half-life in series [6] (setting [12]) is 9.5 ± 2.2 h; in series [6] (setting [14]), 20.7 ± 12.7 h; in [6] (setting [15]), around 19 h. The Tmax in series [6] (setting [11]) was 3.6 ± 2.6 h; in series [6] (setting [13]), 1.8 ± 1.8 h. For the same molecule, the Vd/F is 3770 ± 1390 L in series [6] (setting [11]) and 7880 ± 1810 L in series [6] (setting [13]). In addition, the apparent clearance (CL/F) in [6] (setting [16]) is 329 L/h and 329 ± 163 L/h; in series [6] (setting [17]), 657 L/h and 657 ± 670 L/h; in series [6] (setting [18]), 278 L/h and 278 ± 87 L/h.
